Results on eleven compounds are retold here after US20230357179A1, “RAF KINASE INHIBITORS AND METHODS OF USE THEREOF” (Deciphera Pharmaceuticals, LLC, priority 2021, published 2023).

T1 sequence (P15056 416-766): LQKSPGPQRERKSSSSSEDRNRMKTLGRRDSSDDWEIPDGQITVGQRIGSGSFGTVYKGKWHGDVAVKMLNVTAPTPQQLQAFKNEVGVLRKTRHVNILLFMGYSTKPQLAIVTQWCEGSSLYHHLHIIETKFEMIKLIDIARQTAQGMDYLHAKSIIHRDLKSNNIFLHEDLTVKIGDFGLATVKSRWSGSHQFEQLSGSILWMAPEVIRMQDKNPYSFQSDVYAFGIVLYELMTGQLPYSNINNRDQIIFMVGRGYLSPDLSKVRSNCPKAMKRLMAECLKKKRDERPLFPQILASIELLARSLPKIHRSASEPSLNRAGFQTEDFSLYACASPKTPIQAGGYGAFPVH
T2 sequence (P15056 416-766 V600E): as the sequence (P15056 416-766) above, with V185E counted along it

One assay concerns the target T1, B-Raf kinase (Homo sapiens, UniProt P15056).
T1 construct: GST (N); purchased Sigma
The assay is described as follows: Biochemical assay for B-Raf.1 (coupled pyruvate kinase/lactate dehydrogenase). The settings on record: read-out: BRAF.1 IC50. In short, it runs like this:
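Reaction rates over the 4–5 h window of a continuous 6 h, 30 °C read were converted to percent inhibition and fitted for IC50. B-Raf (0.13 nM) phosphorylated 30.1 nM MEK with 1 mM ATP; ADP coupled via PK/LDH to NADH loss at 340 nm, 1% DMSO final.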
By IC50 is commonly meant the midpoint of a concentration-inhibition curve. Take `COC(C)(C)CCNC(=O)Nc1cc(-c2ccnc(-c3ccnc(NC(=O)C4CC4)c3)c2)c(F)cc1F` [Example 162]: the IC50 is no more than 100 nM.

For the compound `COC(=O)Nc1cc(-c2cc(-c3cc(NC(=O)NCCC(C)(C)OC)c(F)cc3F)ccn2)ccn1` [Example 163], the IC50 lay in the range of 100 to 500 nM.

`CNC(=O)c1cc(-c2cc(-c3cc(NC(=O)NCCC4(C)CC4)c(F)cc3C)cc(OCCO)n2)ccn1` [Example 164]: the half-inhibitory concentration (IC50) is no more than 100 nM.

For `COC(=O)Nc1cc(-c2cc(-c3cc(NC(=O)NCCC(C)(C)F)cnc3C)cc(OCCO)n2)ccn1` [Example 165], the half-inhibitory concentration (IC50) was no more than 100 nM.

On to `COC(=O)Nc1cc(-c2cc(-c3cc(NC(=O)N4CCC(C)(C)CC4)cnc3C)cc(OCCO)n2)ccn1` [Example 166], for which the IC50 was 100 to 500 nM.

Turning to `Cc1cc(F)c(NC(=O)NC2CC(C)(C)C2)cc1-c1cc(OCCO)nc(-c2ccnc(NC(=O)C3CC3)c2)n1` [Example 167], the IC50 is no more than 100 nM.

For `Cc1cc(F)c(NC(=O)NCCC2(C)CC2)cc1-c1cnnc(-c2ccnc(NC(=O)C3CC3)c2)c1` [Example 168], the IC50 is no more than 100 nM.

As for `Cc1ncc(NC(=O)NCCC2(C)CC2)cc1-c1ccnc(-c2ccnc(NC(=O)C3(C#N)CC3)c2)c1` [Example 169], the 50% inhibitory concentration (IC50) is no more than 100 nM.

For the compound `COC(=O)Nc1cc(-c2cccc(-c3cc(NC(=O)NCCC4(C)CC4)cnc3C)c2)ncn1` [Example 170], the IC50 is no more than 100 nM.

For `COC(=O)Nc1cc(-c2ccnc(-c3cc(NC(=O)NCCC(C)(C)OC)c(F)cc3C)n2)ccn1` [Example 171], the concentration for half-maximal inhibition (IC50) was no more than 100 nM.

Consider `Cc1ncc(NC(=O)NCCN2CCC2)cc1-c1cc(OCCO)nc(-c2ccnc(NC(=O)C3CC3)c2)c1` [Example 172], for which the 50% inhibitory concentration (IC50) was greater than 1000 nM.

Another assay has as its target T2, B-Raf (V600E) kinase (Homo sapiens, UniProt P15056, V600E).
T2 construct: B-Raf (V600E) residues 416-766 with a; GST (N); purchased SignalChem
The assay is described as follows: Biochemical assay for B-Raf (V600E).1 (coupled pyruvate kinase/lactate dehydrogenase). The settings on record: read-out: BRAF V600E.1 IC50. In short, it runs like this: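 IC50 came from four-parameter sigmoidal fits of percent inhibition, using reaction rates over 3-4 h. Continuous A340 reading (6 h, 30 °C) of a pyruvate kinase/lactate dehydrogenase-coupled reaction: B-Raf V600E 0.03 nM, MEK 30.1 nM, ATP 1 mM, Tris pH 7.5, 1% DMSO.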
For `COC(C)(C)CCNC(=O)Nc1cc(-c2ccnc(-c3ccnc(NC(=O)C4CC4)c3)c2)c(F)cc1F` [Example 162], the IC50 is no more than 100 nM.

As to `COC(=O)Nc1cc(-c2cc(-c3cc(NC(=O)NCCC(C)(C)OC)c(F)cc3F)ccn2)ccn1` [Example 163], the 50% inhibitory concentration (IC50) is no more than 100 nM.

As to `CNC(=O)c1cc(-c2cc(-c3cc(NC(=O)NCCC4(C)CC4)c(F)cc3C)cc(OCCO)n2)ccn1` [Example 164], the IC50 is no more than 100 nM.

`COC(=O)Nc1cc(-c2cc(-c3cc(NC(=O)NCCC(C)(C)F)cnc3C)cc(OCCO)n2)ccn1` [Example 165]: the IC50 was no more than 100 nM.

As to `COC(=O)Nc1cc(-c2cc(-c3cc(NC(=O)N4CCC(C)(C)CC4)cnc3C)cc(OCCO)n2)ccn1` [Example 166], the 50% inhibitory concentration (IC50) was no more than 100 nM.

On to `Cc1cc(F)c(NC(=O)NC2CC(C)(C)C2)cc1-c1cc(OCCO)nc(-c2ccnc(NC(=O)C3CC3)c2)n1` [Example 167], for which the concentration for half-maximal inhibition (IC50) is no more than 100 nM.

Take `Cc1cc(F)c(NC(=O)NCCC2(C)CC2)cc1-c1cnnc(-c2ccnc(NC(=O)C3CC3)c2)c1` [Example 168]: the concentration for half-maximal inhibition (IC50) is no more than 100 nM.

In the case of `Cc1ncc(NC(=O)NCCC2(C)CC2)cc1-c1ccnc(-c2ccnc(NC(=O)C3(C#N)CC3)c2)c1` [Example 169], the IC50 is no more than 100 nM.

On to `COC(=O)Nc1cc(-c2cccc(-c3cc(NC(=O)NCCC4(C)CC4)cnc3C)c2)ncn1` [Example 170], for which the concentration for half-maximal inhibition (IC50) is no more than 100 nM.

As to `COC(=O)Nc1cc(-c2ccnc(-c3cc(NC(=O)NCCC(C)(C)OC)c(F)cc3C)n2)ccn1` [Example 171], the half-inhibitory concentration (IC50) is no more than 100 nM.

With `Cc1ncc(NC(=O)NCCN2CCC2)cc1-c1cc(OCCO)nc(-c2ccnc(NC(=O)C3CC3)c2)c1` [Example 172], the IC50 is 100 to 500 nM.

In another assay the test system is A375 cells. Nature of the assay: A375 cell proliferation assay (1), resazurin, 96-well. In kind it is cell-based. The settings on record: Homo sapiens, A-375, inhibition of cell proliferation. In a few lines: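 Viability was read by resazurin fluorescence at 540 nm excitation and 600 nm emission, using a 440 μM solution added for 5–6 h at the end of culture. IC50 came from the curve fit.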
Background: Alamar Blue is a resazurin reagent that responds to reducing activity.
Take `COC(C)(C)CCNC(=O)Nc1cc(-c2ccnc(-c3ccnc(NC(=O)C4CC4)c3)c2)c(F)cc1F` [Example 162]: the IC50 was 1000 to 10000 nM.

Regarding `COC(=O)Nc1cc(-c2cc(-c3cc(NC(=O)NCCC(C)(C)OC)c(F)cc3F)ccn2)ccn1` [Example 163], the IC50 was in the range of 1000 to 10000 nM.

For `CNC(=O)c1cc(-c2cc(-c3cc(NC(=O)NCCC4(C)CC4)c(F)cc3C)cc(OCCO)n2)ccn1` [Example 164], the IC50 was no more than 100 nM.

Consider `COC(=O)Nc1cc(-c2cc(-c3cc(NC(=O)NCCC(C)(C)F)cnc3C)cc(OCCO)n2)ccn1` [Example 165], for which the IC50 fell in the range of 1000 to 10000 nM.

For `COC(=O)Nc1cc(-c2cc(-c3cc(NC(=O)N4CCC(C)(C)CC4)cnc3C)cc(OCCO)n2)ccn1` [Example 166], the IC50 lay within 1000 to 10000 nM.

In the case of `Cc1cc(F)c(NC(=O)NC2CC(C)(C)C2)cc1-c1cc(OCCO)nc(-c2ccnc(NC(=O)C3CC3)c2)n1` [Example 167], the concentration for half-maximal inhibition (IC50) is no more than 100 nM.

Regarding `Cc1cc(F)c(NC(=O)NCCC2(C)CC2)cc1-c1cnnc(-c2ccnc(NC(=O)C3CC3)c2)c1` [Example 168], the 50% inhibitory concentration (IC50) was in the range of 100 to 500 nM.

Regarding `Cc1ncc(NC(=O)NCCC2(C)CC2)cc1-c1ccnc(-c2ccnc(NC(=O)C3(C#N)CC3)c2)c1` [Example 169], the 50% inhibitory concentration (IC50) was in the range of 1000 to 10000 nM.

Regarding `COC(=O)Nc1cc(-c2cccc(-c3cc(NC(=O)NCCC4(C)CC4)cnc3C)c2)ncn1` [Example 170], the 50% inhibitory concentration (IC50) was 500 to 1000 nM.

Take `COC(=O)Nc1cc(-c2ccnc(-c3cc(NC(=O)NCCC(C)(C)OC)c(F)cc3C)n2)ccn1` [Example 171]: the concentration for half-maximal inhibition (IC50) is 1000 to 10000 nM.

For the compound `Cc1ncc(NC(=O)NCCN2CCC2)cc1-c1cc(OCCO)nc(-c2ccnc(NC(=O)C3CC3)c2)c1` [Example 172], the IC50 was in the range of 1000 to 10000 nM.

For a further assay, the system named is H2405 cells. Nature of the assay: H2405 cell proliferation assay (1), resazurin, 96-well. The format is cell-based. The settings on record: Homo sapiens, NCI-H2405, inhibition of cell proliferation. As for the experimental part:
H2405 Cell Proliferation Assay (1)
H2405 cells (catalog #CRL-5944) are obtained from the American Type Culture Collect (ATTC, Manassas, VA). Briefly, cells were grown in RPMI 1640 supplemented with 5% characterized fetal bovine serum (Invitrogen, Carlsbad, CA) and 1% Penicillin/Streptomycin/L-Glutamine at 37° C., 5% CO2, and 95% humidity. Cells are expanded until reaching 70-95% confluency at which point they are subcultured or harvested for assay use. A serial dilution of test compound is dispensed into a 96-well black clear bottom plate in triplicate. Three thousand cells are added per well in 200 μL complete growth medium in the 96-well plate. Plates are incubated for 67-72 hours at 37° C., 5% CO2, and 95% humidity. At the end of the incubation, 40 μL of a 440 μM solution of resazurin (Sigma, St. Louis, MO) in PBS is added to each well of the plate and plates are incubated for an additional 5-6 hours at 37° C., 5% CO2, and 95% humidity. Plates are read on a Synergy2 or equivalent reader (Biotek, Winooski VT) using an excitation of 540 nm and an emission of 600 nm. Data is analyzed using Prism software (GraphPad, San Diego, CA) to calculate IC50 values.
For `COC(C)(C)CCNC(=O)Nc1cc(-c2ccnc(-c3ccnc(NC(=O)C4CC4)c3)c2)c(F)cc1F` [Example 162], the IC50 was in the range of 1000 to 10000 nM.

As for `COC(=O)Nc1cc(-c2cc(-c3cc(NC(=O)NCCC(C)(C)OC)c(F)cc3F)ccn2)ccn1` [Example 163], the IC50 fell in the range of 1000 to 10000 nM.

For the compound `CNC(=O)c1cc(-c2cc(-c3cc(NC(=O)NCCC4(C)CC4)c(F)cc3C)cc(OCCO)n2)ccn1` [Example 164], the half-maximal inhibitory concentration (IC50) lay in the range of 100 to 500 nM.

Regarding `COC(=O)Nc1cc(-c2cc(-c3cc(NC(=O)NCCC(C)(C)F)cnc3C)cc(OCCO)n2)ccn1` [Example 165], the half-inhibitory concentration (IC50) was in the range of 100 to 500 nM.

`COC(=O)Nc1cc(-c2cc(-c3cc(NC(=O)N4CCC(C)(C)CC4)cnc3C)cc(OCCO)n2)ccn1` [Example 166]: the IC50 fell in the range of 500 to 1000 nM.

In the case of `Cc1cc(F)c(NC(=O)NC2CC(C)(C)C2)cc1-c1cc(OCCO)nc(-c2ccnc(NC(=O)C3CC3)c2)n1` [Example 167], the half-inhibitory concentration (IC50) was no more than 100 nM.

As for `Cc1cc(F)c(NC(=O)NCCC2(C)CC2)cc1-c1cnnc(-c2ccnc(NC(=O)C3CC3)c2)c1` [Example 168], the IC50 is no more than 100 nM.

For the compound `Cc1ncc(NC(=O)NCCC2(C)CC2)cc1-c1ccnc(-c2ccnc(NC(=O)C3(C#N)CC3)c2)c1` [Example 169], the concentration for half-maximal inhibition (IC50) lay within 100 to 500 nM.

For `COC(=O)Nc1cc(-c2cccc(-c3cc(NC(=O)NCCC4(C)CC4)cnc3C)c2)ncn1` [Example 170], the half-maximal inhibitory concentration (IC50) fell in the range of 100 to 500 nM.

On to `COC(=O)Nc1cc(-c2ccnc(-c3cc(NC(=O)NCCC(C)(C)OC)c(F)cc3C)n2)ccn1` [Example 171], for which the concentration for half-maximal inhibition (IC50) is 1000 to 10000 nM.

As for `Cc1ncc(NC(=O)NCCN2CCC2)cc1-c1cc(OCCO)nc(-c2ccnc(NC(=O)C3CC3)c2)c1` [Example 172], the IC50 is 1000 to 10000 nM.
